Literature values as cited in patent publication US20120128764A1, “CONTROLLED-RELEASE COMPOSITIONS COMPRISING A PROTON PUMP INHIBITOR” (Aptalis Pharmatech, Inc., priority 2009, published 2012).

Legend:
[1] = not given; remark: listed apart in the source

SMILES	solubility in phosphate buffer (phosphate buffer at pH 7.4)	solubility in water (water)	mean Tmax ([1]; after oral administration)	half-life (t1/2) ([1]; elimination) [h]	accumulation upon multiple dosing ([1]; multiple dosing)	dose proportionality of Cmax and AUC ([1]; over 10 mg to 80 mg doses)
COc1ccnc(C[S+]([O-])c2nc3ccc(OC(F)F)cc3[nH]2)c1OC (stereo not drawn) [Pantoprazole sodium sesquihydrate]	very slightly soluble	freely soluble	–	–	–	–
COc1ccnc(C[S+]([O-])c2nc3ccc(OC(F)F)cc3[nH]2)c1OC (stereo not drawn) [Pantoprazole, 5-(difluoromethoxy)-2-[(3,4-dimethoxypyridin-2-yl)methylsulfinyl]-3H-benzoimidazole]	–	–	approximately 90 minutes	1.8	does not accumulate	dose proportional
